From patent US20250388605A1, “HETEROBIFUNCTIONAL COMPOUNDS AND METHODS OF TREATING DISEASE” (Halda Therapeutics OpCo, Inc., priority 2022, published 2025) come the findings set out here.

A word on the Ki: it is the equilibrium dissociation constant of an inhibitor or competing ligand from its target. Read a low Ki as higher affinity. For orientation: GI50 means the concentration that inhibits growth by half. A lower GI50 goes with greater sensitivity of the cells. As a reminder, the IC50 is the concentration that inhibits the measured activity by half.

The target in experiment [1] is T1, androgen receptor (Homo sapiens, UniProt P10275).
T1 construct: host or cells: unnamed cells, cytosolic fraction
T1 sequence (P10275 1-920): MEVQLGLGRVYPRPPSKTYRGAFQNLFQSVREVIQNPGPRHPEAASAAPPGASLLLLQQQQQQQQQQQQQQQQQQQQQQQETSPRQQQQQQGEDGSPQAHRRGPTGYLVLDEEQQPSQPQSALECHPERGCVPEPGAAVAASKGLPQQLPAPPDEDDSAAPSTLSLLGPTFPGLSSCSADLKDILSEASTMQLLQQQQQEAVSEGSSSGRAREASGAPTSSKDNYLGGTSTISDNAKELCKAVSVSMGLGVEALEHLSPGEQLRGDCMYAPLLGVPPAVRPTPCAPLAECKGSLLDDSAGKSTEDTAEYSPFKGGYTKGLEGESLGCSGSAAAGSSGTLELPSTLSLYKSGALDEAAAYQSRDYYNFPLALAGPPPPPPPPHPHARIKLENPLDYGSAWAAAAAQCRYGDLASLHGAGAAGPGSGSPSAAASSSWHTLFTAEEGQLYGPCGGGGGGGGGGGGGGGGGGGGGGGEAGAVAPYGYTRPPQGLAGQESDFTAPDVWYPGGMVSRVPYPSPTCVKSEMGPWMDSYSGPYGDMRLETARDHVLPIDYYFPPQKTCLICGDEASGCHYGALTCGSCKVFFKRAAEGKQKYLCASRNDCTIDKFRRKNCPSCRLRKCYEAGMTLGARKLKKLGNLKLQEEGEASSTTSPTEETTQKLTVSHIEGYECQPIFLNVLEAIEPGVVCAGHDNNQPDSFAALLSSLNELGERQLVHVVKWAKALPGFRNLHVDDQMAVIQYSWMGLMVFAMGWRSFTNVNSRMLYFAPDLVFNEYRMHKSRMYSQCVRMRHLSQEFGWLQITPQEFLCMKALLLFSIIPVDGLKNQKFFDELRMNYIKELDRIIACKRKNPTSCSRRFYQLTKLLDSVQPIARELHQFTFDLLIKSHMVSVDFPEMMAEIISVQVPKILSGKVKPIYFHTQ
Description: Assay for binding affinity to androgen receptor ([3H]methyltrienolone radioligand competition, cell cytosol). To be noted: binding to the androgen receptor, 1 nM [3H]methyltrienolone, 24 hr at 4° C. On the technique in general: Displacement assays read how much labelled ligand stays bound in the presence of the test substance.

Experiment [2] has as its system T-Rex 293 cell line SC cells having increased expression of progesterone receptor isoform B protein. Description: Cellular growth inhibition assay, T-Rex 293 SC cells exposed to doxycycline (increased progesterone receptor isoform B expression), CellTiter-Glo. The class given is cell-based. To be noted: T-Rex 293 SC cells with 10 ng/mL doxycycline (increased PR isoform B), 72 hours. A general note: In ATP-based viability assays light output follows the ATP content of the culture.

For experiment [3], the target named is T2, progesterone receptor ligand binding domain (GST-tagged PR LBD) (Homo sapiens, UniProt P06401).
T2 construct: purchased Life Technologies A15905 or a15906
T2 sequence (P06401 679-913 limits assumed): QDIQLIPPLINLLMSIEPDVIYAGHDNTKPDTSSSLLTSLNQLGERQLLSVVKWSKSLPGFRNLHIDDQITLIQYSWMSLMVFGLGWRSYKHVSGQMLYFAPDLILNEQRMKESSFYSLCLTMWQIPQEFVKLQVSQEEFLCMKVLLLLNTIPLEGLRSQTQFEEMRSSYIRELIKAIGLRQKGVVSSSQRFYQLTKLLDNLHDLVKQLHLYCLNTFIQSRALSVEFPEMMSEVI
Kind of experiment: FP Assay for Binding Affinity to Progesterone Receptor (PolarScreen Progesterone Receptor Competitor Assay Kit). To be noted: fluorescence polarization, Fluormone tracer, 2 hours at room temperature. In short, it runs like this:
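Fluorescence polarization competition: GST-tagged human PR LBD, Fluormone tracer and compound incubated 2 h at room temperature in the dark. mP plotted against compound concentration; IC50 from four-parameter non-linear fit.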
In general terms: Polarisation of emitted light reports the rotation of a fluorescent probe.

As to `CCS(=O)(=O)Nc1ccc(Oc2cccc(OCCOC3CCN(c4ccc(C(=O)N[C@H]5C(C)(C)[C@H](Oc6ccc(C#N)c(Cl)c6)C5(C)C)cn4)CC3)c2)c(-c2cn(C)c(=O)c3[nH]ccc23)c1` [Compound I-70, N-((1r, 3r)-3-(3-chloro-4-cyanophenoxy)-2,2,4,4-tetramethylcyclobutyl)-6-(4-(2-(3-(4-(ethylsulfonamido)-2-(6-methyl-7-oxo-6,7-dihydro-1H-pyrrolo[2,3-c]pyridin-4-yl)phenoxy)phenoxy)ethoxy)piperidin-1-yl)nicotinamide], the Ki in experiment [1] is below 50 nM. Further, the GI50 in experiment [2] is below 500 nM.

With `CCS(=O)(=O)Nc1ccc(Oc2cccc(OCCOC3CCN(c4cnc(C(=O)N[C@H]5C(C)(C)[C@H](Oc6ccc(C#N)c(Cl)c6)C5(C)C)cn4)CC3)c2)c(-c2cn(C)c(=O)c3[nH]ccc23)c1` [Compound I-71, N-((1r, 3r)-3-(3-chloro-4-cyanophenoxy)-2,2,4,4-tetramethylcyclobutyl)-5-(4-(2-(3-(4-(ethylsulfonamido)-2-(6-methyl-7-oxo-6,7-dihydro-1H-pyrrolo[2,3-c]pyridin-4-yl)phenoxy)phenoxy)ethoxy)piperidin-1-yl)pyrazine-2-carboxamide], the Ki in experiment [1] fell in the range of 500 to 2500 nM. The molecule further registered a GI50 in experiment [2] below 500 nM.

For the molecule `Cn1cc(-c2cc(C(C)(C)O)ccc2Oc2cccc(OCCN3CCN(c4ncc(C(=O)N[C@H]5C(C)(C)[C@H](Oc6ccc(C#N)c(Cl)c6)C5(C)C)cn4)CC3)c2F)c2cc[nH]c2c1=O` [Compound I-99], the Ki in experiment [1] was below 50 nM. Besides, in experiment [3], the IC50 is 50 to 500 nM.

As for `CCS(=O)(=O)Nc1ccc(Oc2ccc(OCC3CCN(c4ncc(C(=O)N[C@H]5C(C)(C)[C@H](Oc6ccc(C#N)c(Cl)c6)C5(C)C)cn4)CC3)cc2)c(-c2cn(C)c(=O)c3[nH]ccc23)c1` [Compound I-138], in experiment [1], the Ki is below 50 nM. The same molecule gave a GI50 in experiment [2] below 500 nM. In experiment [3], the IC50 was above 2500 nM.

Regarding `Cn1cc(-c2cc(C(C)(C)O)ccc2Oc2ccc(CCC3CCN(c4ncc(C(=O)N[C@H]5C(C)(C)[C@H](Oc6ccc(C#N)c(Cl)c6)C5(C)C)cn4)CC3)cc2)c2cc[nH]c2c1=O` [Compound I-203], in experiment [1], the inhibitory constant (Ki) lay within 50 to 500 nM. The same molecule came in with a GI50 in experiment [2] below 500 nM. Further, the IC50 in experiment [3] was above 2500 nM.

In turn, `Cn1cc(-c2cc(C(C)(C)O)ccc2Oc2ccc(N3CC4(C3)CN(c3ncc(C(=O)N[C@H]5C(C)(C)[C@H](Oc6ccc(C#N)c(Cl)c6)C5(C)C)cn3)CCO4)cc2)c2cc[nH]c2c1=O` [Compound I-212] returned a Ki in experiment [1] below 50 nM. In experiment [3], this molecule displayed an IC50 of 50 to 500 nM.

Turning to `Cn1cc(-c2cc(C(C)(C)O)ccc2Oc2cccc(N3CC4(CN(c5ncc(C(=O)N[C@H]6C(C)(C)[C@H](Oc7ccc(C#N)c(Cl)c7)C6(C)C)cn5)CCO4)C3)c2F)c2cc[nH]c2c1=O` [Compound I-216], in experiment [1], the Ki is below 50 nM. In experiment [3], the IC50 is 50 to 500 nM.

In experiment [1], `CCS(=O)(=O)c1ccc(Oc2cccc(OCCN3CCN(c4ncc5c(n4)CN([C@H]4C(C)(C)[C@H](Oc6ccc(C#N)c(Cl)c6)C4(C)C)C5=O)CC3)c2F)c(-c2cn(C)c(=O)c3[nH]ccc23)c1` [Compound I-217] had a Ki below 50 nM. The same molecule showed an IC50 in experiment [3] below 50 nM.

Molecule `CCS(=O)(=O)c1ccc(OC(CCCCN2CCN(c3ncc(C(=O)NC4C(C)(C)C(Oc5ccc(C#N)c(Cl)c5)C4(C)C)cn3)CC2)C2CC2)c(-c2cn(C)c(=O)c3[nH]ccc23)c1` (centres unmarked) [Compound I-223, N-[3-(3-chloro-4-cyano-phenoxy)-2,2,4,4-tetramethyl-cyclobutyl]-2-[4-[5-cyclopropyl-5-[4-ethylsulfonyl-2-(6-methyl-7-oxo-1H-pyrrolo[2,3-c]pyridin-4-yl)phenoxy]pentyl]piperazin-1-yl]pyrimidine-5-carboxamide] displayed a Ki in experiment [1] below 50 nM. Moreover, the IC50 in experiment [3] was 50 to 500 nM.

`Cn1cc(-c2cc(C(C)(C)O)ccc2Oc2ccc(N3CC(CC4CCN(c5ncc(C(=O)N[C@H]6C(C)(C)[C@H](Oc7ccc(C#N)c(Cl)c7)C6(C)C)cn5)CC4)C3)cc2)c2cc[nH]c2c1=O` [Compound I-232] had an inhibition constant Ki in experiment [1] below 50 nM. In experiment [2], this molecule registered a GI50 below 500 nM. The molecule further gave an IC50 in experiment [3] of 500 to 2500 nM.
